Laboratory results from ChEMBL document CHEMBL1139029, “Synthesis and SAR of substituted tetrahydrocarbazole derivatives as new NPY-1 antagonists” (Bioorg Med Chem Lett, 2006).

Test system: not listed separately
Assay: Ratio of drug level in brain against plasma in CD rat at 1 mg/kg, iv
Type: ADME, organism-based
Set-up: dose 1 mg/kg, route intravenous
Details: brain and plasma

| Kp | SMILES |
| --- | --- |
| 0.8 | CN1CCC(Cn2c3c(c4ccccc42)C(=O)C(N2CCN(C)CC2)C[C@H]3Oc2ccc(Cl)cc2)CC1 (stereo partly specified) |

Molecular target: T1, Neuropeptide Y receptor type 1 (Homo sapiens, UniProt P25929)
T1 sequence (P25929 whole entry): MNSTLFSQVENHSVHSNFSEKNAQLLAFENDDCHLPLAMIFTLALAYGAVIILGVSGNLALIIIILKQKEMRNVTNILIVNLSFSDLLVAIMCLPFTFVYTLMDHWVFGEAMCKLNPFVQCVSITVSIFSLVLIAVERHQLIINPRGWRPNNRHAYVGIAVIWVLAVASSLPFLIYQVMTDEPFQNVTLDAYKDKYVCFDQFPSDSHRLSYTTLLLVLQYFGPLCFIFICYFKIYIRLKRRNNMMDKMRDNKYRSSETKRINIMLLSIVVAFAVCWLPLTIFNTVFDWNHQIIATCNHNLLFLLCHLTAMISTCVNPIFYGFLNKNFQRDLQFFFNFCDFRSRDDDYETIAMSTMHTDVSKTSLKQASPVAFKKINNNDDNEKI
Assay: Displacement of [125I]PYY from human recombinant NPY1 receptor expressed in CHO cells
Type: cell-based
Details: not given

| SMILES | IC50 [nM] | Ki [nM] |
| --- | --- | --- |
| O=C1c2c(n(CC3CCNCC3)c3ccccc23)[C@H](Oc2ccc(Cl)cc2)CC1N1CCC(F)(F)CC1 (stereo partly specified) | 1860 |  |
| O=C1c2c(n(CCCN3CCCCC3)c3ccccc23)[C@H](Oc2ccc(Cl)cc2)CC1N1CCCCC1 (stereo partly specified) | 3390 |  |
| CN1CCN(C2C[C@@H](Oc3ccc(Cl)cc3)c3c(c4ccccc4n3CCCN3CCCCC3)C2=O)CC1 (stereo partly specified) | 1320 |  |
| O=C1c2c(n(CC3CCNCC3)c3ccccc23)[C@H](Oc2ccc(Cl)cc2)CC1N1CCN(CCO)CC1 (stereo partly specified) | 37.2 |  |
| CC1CCN([C@H]2C[C@@H](Oc3ccc(Cl)cc3)c3c(c4ccccc4n3CC3CCNCC3)C2=O)CC1 | 22.4 |  |
| O=C1CC[C@@H](Oc2ccc(Cl)cc2)c2c1c1ccccc1n2CCCN1CCCCC1 | 7240 |  |
| CC1CCN(C2C[C@@H](Oc3ccc(Cl)cc3)c3c(c4ccccc4n3CCCN3CCCCC3)C2=O)CC1 (stereo partly specified) | 646 |  |
| CC1(F)CCN(C2C[C@@H](Oc3ccc(Cl)cc3)c3c(c4ccccc4n3CC3CCNCC3)C2=O)CC1 (stereo partly specified) | 100 |  |
| O=C1c2c(n(CCCN3CCCCC3)c3ccccc23)[C@H](Oc2ccc(Cl)cc2)CC1N1CCOCC1 (stereo partly specified) | 15800 |  |
| O=C1c2c(n(CCCN3CCCCC3)c3ccccc23)[C@H](Oc2ccc(Cl)cc2)CC1N1CCNCC1 (stereo partly specified) | 331 |  |
| CN1CCN(C2C[C@@H](Oc3ccc(Cl)cc3)c3c(c4ccccc4n3CC3CCNCC3)C2=O)CC1=O (stereo partly specified) | 3890 |  |
| CC1CCN([C@@H]2C[C@@H](Oc3ccc(Cl)cc3)c3c(c4ccccc4n3CC3CCNCC3)C2=O)CC1 | 97.7 |  |

Now from value to compound:

| IC50 [nM] | Ki [nM] | SMILES |
| --- | --- | --- |
| 33.9 |  | CN1CCC(Cn2c3c(c4ccccc42)C(=O)C(N2CCN(C)CC2)C[C@H]3Oc2ccc(Cl)cc2)CC1 (stereo partly specified) |
| 49 |  | CN1CCN([C@H]2C[C@@H](Oc3ccc(Cl)cc3)c3c(c4ccccc4n3CC3CCNCC3)C2=O)CC1 |
| 25100 |  | CN1CCN(C2C[C@@H](Oc3ccc(Cl)cc3)c3c(c4ccccc4n3C)C2=O)CC1 (stereo partly specified) |
| 776 |  | CN1CCN([C@@H]2C[C@@H](Oc3ccc(Cl)cc3)c3c(c4ccccc4n3CC3CCNCC3)C2=O)CC1 |
| 170 | 100 | CN1CCN(C2C[C@@H](Oc3ccc(Cl)cc3)c3c(c4ccccc4n3C[C@@H]3CCN(C)C[C@@H]3F)C2=O)CC1 (stereo partly specified) |
| 240 |  | CN1CCN(C2C[C@@H](Oc3ccc(Cl)cc3)c3c(c4ccccc4n3C[C@H]3CCNC[C@@H]3F)C2=O)CC1 (stereo partly specified) |
| 93.3 |  | CNC1CCC(Cn2c3c(c4ccccc42)C(=O)C(N2CCN(C)CC2)C[C@H]3Oc2ccc(Cl)cc2)CC1 (stereo partly specified) |
| 437 |  | CN1CCN(C2C[C@@H](Oc3ccc(Cl)cc3)c3c(c4ccccc4n3C[C@H]3CCN(C)C[C@@H]3F)C2=O)CC1 (stereo partly specified) |
| 186 |  | CN1CCN(C2C[C@@H](Oc3ccc(Cl)cc3)c3c(c4ccccc4n3C[C@@H]3CCNC[C@@H]3F)C2=O)CC1 (stereo partly specified) |

Test system: not listed separately
Assay: Oral bioavailability in CD rat at 5 mg/kg, po
Type: ADME, organism-based
Details: in vivo

| bioavailability [%] | SMILES |
| --- | --- |
| 27 | CN1CCC(Cn2c3c(c4ccccc42)C(=O)C(N2CCN(C)CC2)C[C@H]3Oc2ccc(Cl)cc2)CC1 (stereo partly specified) |
| 0 | CN1CCN([C@H]2C[C@@H](Oc3ccc(Cl)cc3)c3c(c4ccccc4n3CC3CCNCC3)C2=O)CC1 |

Test system: not listed separately
Assay: Plasma clearance in CD rat at 1 mg/kg, iv
Type: ADME, organism-based
Set-up: dose 1 mg/kg, route intravenous
Details: not given

| clearance [mL/min/kg] | SMILES |
| --- | --- |
| 59 | CN1CCC(Cn2c3c(c4ccccc42)C(=O)C(N2CCN(C)CC2)C[C@H]3Oc2ccc(Cl)cc2)CC1 (stereo partly specified) |
